Assay results: PubChem BioAssay (NCI)
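Assay format: 96-well plates, 48-hour exposure. GI50 marks 50% less growth. TGI: total growth inhibition.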

What was measured:
Assay in all cases: inhibition of tumour cell growth, NCI panel, 48 h
[1] = tested on: UACC-62 melanoma
[2] = tested on: NCI-H23 lung
[3] = tested on: HCC-2998 colon
[4] = tested on: SF-295 CNS
[5] = tested on: NCI-H460 lung
[6] = tested on: SW-620 colon
[7] = tested on: MOLT-4 leukemia
[8] = tested on: SK-MEL-5 melanoma
[9] = tested on: RPMI-8226 leukemia
[10] = tested on: HOP-92 NSCLC

Compound	TGI [1]	TGI [2]	TGI [3]	TGI [4]	TGI [5]	TGI [6]	TGI [7]	TGI [8]	TGI [9]	TGI [10]	GI50 [9]	GI50 [1]	GI50 [2]	GI50 [4]	GI50 [5]	GI50 [7]	GI50 [3]	GI50 [6]	GI50 [8]	GI50 [10]
Cc1nc2ccncc2[nH]1	> 100 µM	> 100 µM	> 100 µM	> 100 µM	> 100 µM	> 100 µM	> 100 µM	> 100 µM												
CCOC(=O)C1=C(C)N(NC(N)=O)C2(N)N(NC(N)=O)C(C)=C(C(=O)OCC)C12C#N (stereo not given)	> 100 µM		> 100 µM	> 100 µM	> 100 µM	> 100 µM	> 100 µM	> 100 µM	> 100 µM											
Cc1ccc(-n2nc(C(OC3OC(CO)C(O)C(O)C3O)C(O)CO)c3nc4cc(C)c(C)cc4nc32)cc1 (stereo not given)	> 100 µM	> 100 µM	> 100 µM	> 100 µM	> 100 µM		> 100 µM		> 100 µM											
COCOC1CCCC[C@@]1(OCCOCCO[C@@]1(c2ccccc2)CCCC[C@H]1OCOC)c1ccccc1 (stereo not given in full)	> 100 µM	> 100 µM	> 100 µM	> 100 µM	> 100 µM	> 100 µM			> 100 µM											
N#Cc1ccccc1Sc1ccccc1N	> 100 µM	> 100 µM		> 100 µM	> 100 µM	> 100 µM	> 100 µM	77.3 µM		> 100 µM										
CCOC(=O)c1cn(C)c2c(OC)c3ccccc3c(OC)c2c1=O	36.4 µM	37.8 µM		55.2 µM	> 100 µM		51.7 µM		> 100 µM		23.8 µM	19.5 µM	16.1 µM	21.4 µM	32.1 µM	18.9 µM				
CC(=O)C1(C(=O)C(=[N+]=[N-])S(=O)(=O)c2ccccc2)CC1	> 100 µM	> 100 µM	> 100 µM	> 100 µM	> 100 µM	> 100 µM	> 100 µM	> 100 µM	> 100 µM											
CCN1C(=O)N(CC)C2C1NC(=S)N2/N=C/C=C/c1ccccc1 (stereo not given)	> 100 µM	> 100 µM	> 58.6 µM	> 100 µM	> 100 µM	> 100 µM	> 100 µM	11.3 µM	> 64.2 µM		0.183 µM	0.0439 µM	0.546 µM	0.0666 µM	0.176 µM	0.277 µM	0.328 µM	0.0726 µM	0.145 µM	
Nc1nc(-c2ccccc2)c(CC(=O)O)s1	> 100 µM			> 100 µM	> 100 µM	> 100 µM	> 100 µM	> 100 µM	> 100 µM	> 100 µM										
C1CN2CCO[SiH](O1)OCC2	> 100 µM	> 100 µM	> 100 µM	> 100 µM	> 100 µM	> 100 µM	> 100 µM	> 100 µM	> 100 µM											
[O-][n+]1c2cccc(O)c2[n+]([O-])c2cccc(O)c21		> 100 µM		> 100 µM	> 100 µM	> 100 µM	> 100 µM	> 100 µM	83.3 µM	97.5 µM										
O=C(Nc1ccccc1C(=O)NC(=O)c1ccccc1NC(=O)c1ccccc1)c1ccccc1	5.54 µM	17.1 µM		26.6 µM	28.1 µM	18.6 µM		12.2 µM	8.23 µM	6.5 µM										
CC1CCCP(=O)(c2ccccc2)CCC1 (stereo not given)	> 100 µM	> 100 µM	> 100 µM	> 100 µM	> 100 µM	> 100 µM	> 100 µM	> 100 µM	> 100 µM											
COc1ccccc1/C=C(\NC(=O)c1ccccc1)c1nc2ccc(Cl)cc2[nH]1	55.3 µM	69.3 µM			> 100 µM	> 100 µM	54.9 µM	33.7 µM	38.5 µM	56.8 µM										
Cc1ccc(S(=O)(=O)Nc2ccccc2C(C)(C)C)cc1	44.4 µM	46.3 µM	> 100 µM	32 µM	42.2 µM	> 100 µM	62.8 µM	29.8 µM	54.3 µM											
Cc1ccccc1Nc1cc(O)c2c(=O)cc(-c3ccccc3)oc2c1	> 100 µM	> 100 µM		> 100 µM	> 100 µM	> 100 µM	> 100 µM		> 100 µM	> 100 µM	2.87 µM	2.89 µM	4.75 µM	2.36 µM	2.89 µM	2.66 µM		0.734 µM		3.51 µM
Cc1ccc(-n2c3nc(=O)n(C)c(=O)c-3nc3ccccc32)c(C)c1	5.49 µM	7.75 µM	19 µM	22.9 µM	15.3 µM	19.1 µM	36.2 µM	18.5 µM	42.4 µM											
CCC(Oc1ccc(OC)c2c1C(=O)CCC2)C(=O)O (stereo not given)	> 100 µM	> 100 µM	> 100 µM	> 100 µM	> 100 µM	> 100 µM	> 100 µM	> 100 µM	> 100 µM											
